Experimental findings from patent publication US10196357B2, “Biaryl compositions and methods for modulating a kinase cascade” (Athenex, Inc., priority 2007, dated 2019) are described below.

In series [1] the test system is wild-type aywl strain of HBV. Description: HBV primary assay (HepG2-2.2.15 antiviral assay). Format: cell-based. To be noted: Test Concentration 10 μM. The protocol:
The HBV primary assay developed was conducted similarly to that described by Korba et al., (Antiviral Res. 15: 217-228 (1991) and Antiviral Res. 19: 55-70 (1992)) with the exception that viral DNA detection and quantification have been improved and simplified (Korba et al., Antiviral Res. 19: 55-70 (1992)).
Compound 38 (KX2-377), Compound 136 (KX2-393), and Compound 137 (KX2-394) were evaluated for potential anti-HBV activity using a single high-test concentration of compounds in the standardized HepG2-2.2.15 antiviral assay. The HepG2-2.2.15 is a stable cell line producing high levels of the wild-type aywl strain of HBV. Briefly, HepG2-2.2.15 cells were plated in 96-well plates. Only the interior wells were utilized to reduce “edge effects” observed during cell culture; the exterior wells are filled with complete medium to help minimize sample evaporation. On the following day, the confluent monolayer of HepG2-2.2.15 cells was washed and the medium is replaced with complete medium containing test concentrations of a test article in triplicate. 3TC was used as the positive control, while media alone was added to cells as the untreated control. Three days later the culture medium was replaced with fresh medium containing the appropriately diluted drug. Six days following the initial administration of the test compound, the cell culture supernatant was collected, treated with pronase and DNAse and then used in a real-time quantitative TaqMan PCR assay for direct measurement of HBV DNA copies using an ABI Prism 7900 sequence detection system (Applied Biosystems, Foster City, Calif.).
(§1) The antiviral activity of each test compound was calculated by comparing its HBV DNA copies against that of the untreated control cells (100%) to derive percent inhibition level. After removing the supernatant, the remaining cells were subject to CellTiter 96 Aqueous One (Promega, Madison, Wis.) solution cell proliferation assay (MTS-based) to measure cell viability. Cytotoxicity of the compound was determined by comparing its cell viability with that of the untreated cell control to derive percentage of the cell control.

Another series has as its system HepG2-2.2.15 cells. Description: cytotoxicity in HBV primary assay (MTS). The class given is cell-based. To be noted: Test Concentration 10 μM. As for the experimental part:
as §1

A short description of series [2]: noise-induced hearing loss. The class given is in vivo, Chinchillas. To be noted: chinchilla ears treated on round window, 4 kHz band noise 105 dB SPL 4 h, days 1, 7, 21; relative to control ears. The protocol:
Chinchillas (N=6) were used in studies of noise-induced hearing loss. The animals' hearing sensitivity was measured using standard electrophysical techniques before the experimental manipulation. […] Animals were anesthetized, the auditory bullae were opened, and the left and right cochleas were visualized. The round window leading to the scala tympani of the cochlea was used as the access point for drug application. Animals were treated with KX1-004, KX1-141, KX1-329 or KX2-328 (a non-ATP competitive inhibitor from AstraZeneca, KX2-238), emulsified in DMSO, in 1000 mM of saline solution, which was placed on the round window of one ear. KX1-004:
A control solution of 3 mM DMSO in 1000 mM of saline solution was placed on the round window of the other ear. The solution was allowed to set on the round window for 30 minutes, then the auditory bullae were closed. […] Following the noise exposure, the animals' hearing was tested at day 1, day 7, and day 21 to determine evoked potential threshold shifts. Permanent threshold shift was assessed at day 21.
FIGS. 10-12 show the average threshold shifts for animals treated with KX1-004, KX1-141, KX1-329 or KX2-328.

Series [3] is described as follows: cisplatin-induced hearing loss. Format: in vivo. To be noted: guinea pigs, subcutaneous treatment prior to cisplatin. The protocol:
The effects of high level noise and ototoxic drugs, such as cisplatin or the class of aminoglycosides, share several common features in the inner ear. First, the noise and/or drugs alter the free radical/antioxidant levels in the cochlea (inner ear). […] Guinea pigs (N=7) were used in studies of cisplatin-induced hearing loss. The animals' hearing sensitivity was measured using standard electrophysical techniques before the experimental manipulation. […] Animals were anesthetized and treated with cisplatin. Subsequently, the animals' hearing was tested to determine evoked potential threshold shifts.
KX1 is CH65. Animals were treated subcutaneously with KX1-004 prior to the cisplatin-induced hearing loss.

For another series, the system named is c-Src 3T3 cells. As to the kind of experiment: BrdU cell growth inhibition, c-Src 3T3. Format: cell-based, mouse. Conditions: Mus musculus; for activity at 0.1 µM / activity at 1 µM / activity at 10 µM: NIH3T3, read-out: c-Src 3T3 Growth, % of Control Mean, n = 3; for activity at 0.1 µM: 100 nM; for GI50: c-Src 3T3 (c-Src527F/NIH3T3) cells, read-out: GI50. Summed up:
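c-Src 3T3 cells on poly-D-lysine plates in DMEM with 2% FBS, L-glutamine, pyruvate and 10 mM HEPES. Compounds came from 20 mM DMSO stocks diluted in DMEM/10% FBS. Proliferation was read by colorimetric BrdU-incorporation ELISA, and GI50 was extrapolated from growth relative to time-zero and untreated controls.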

The test system of series [4] is colon tumor cell line KM 12. As to the kind of experiment: tumor growth inhibition, KM12. Format: cell-based. Conditions: Homo sapiens; KM12 cells. The protocol: (§2) These GI50's were determined using the standard tumor growth inhibition assays, similar to that described in detail for the HT29 cell line above, and the following cell lines: colon tumor cell lines KM 12, lung cancer cell line H460 and lung cancer cell line A549 (all are NCI standard tumor cell lines).

The test system of series [5] is lung cancer cell line H460. Description: tumor growth inhibition, H460. Format: cell-based. Conditions: Homo sapiens, NCI-H460; H460 cells. As for the experimental part:
as §2

Series [6] concerns lung cancer cell line A549. Description: tumor growth inhibition, A549. Format: cell-based, Human. Conditions: Homo sapiens. The source says: Growth Inhibition. […] T1 values≤T0 values were designated as T, cytotoxicity.
The next series deals with HT29 cell line. As to the kind of experiment: BrdU cell growth inhibition, HT29. To be noted: Homo sapiens; for GI50: HT-29, HT29 (Colon) cells, read-out: GI50; for activity at 0.05 µM / activity at 0.5 µM / activity at 5 µM: HT-29, read-out: HT-29 Growth, % of Control Mean, n = 3; for activity at 0.05 µM: 50 nM; for activity at 0.5 µM: 500 nM. Format: cell-based, human. Summed up: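 HT29 colon carcinoma cells treated with compounds diluted from 20 mM DMSO stocks into DMEM/10% FBS. Proliferation read as colorimetric BrdU incorporation ELISA; GI calculated relative to untreated cells at time 0 and control cells at day n, with GI50 extrapolated. Net cell loss below time-0 level scored as cytotoxicity.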

In the next series the test system is 769-P. As to the kind of experiment: renal tumor cell growth inhibition, 769-P. To be noted: Homo sapiens. Format: cell-based, Human. As for the experimental part: (§3) These GI50s were determined using standard tumor growth inhibition assays, similar to those described in detail in this Example 7.
Another series has as its system 786-O. As to the kind of experiment: renal tumor cell growth inhibition, 786-O. The class given is cell-based, Human. To be noted: Homo sapiens, 786-0, renal cell adenocarcinoma. As for the experimental part: as §3
The next series concerns ACHN. Description: renal tumor cell growth inhibition, ACHN. Format: cell-based, Human. To be noted: Homo sapiens, renal cell adenocarcinoma. As for the experimental part:
as §3

A further series has as its system Caki-2. As to the kind of experiment: renal tumor cell growth inhibition, Caki-2. Format: cell-based, Human. Conditions: Homo sapiens; Caki-2, clear cell carcinoma. The protocol: as §3
The subject of another series is Hep 3B. Description: MTT growth inhibition, Hep 3B. To be noted: Hep 3B, 8.0×10^3 cells/wells, […] FBS @ 78 Hr. The class given is cell-based, human. As for the experimental part:
(§4) Samples of the test compounds were formulated in 100% DMSO to obtain 20 mM stock solutions; stored @ 4° C. The IC50s and IC80s were determined as described below. Huh7, WRL-68, PLC/PRF/5, Hep 3B, and Hep G2 human cancer lines were routinely cultured and maintained in a basal medium containing 2% FBS @ 37° C., 5% CO2. […] Vehicle control contained cells, no sample. Medium control contained cells, no sample, 0.03% DMSO (highest DMSO concentration present in samples). […] On day 3, 10 μL MTT (5 mg/mL) were added to each well. Cells were incubated in the presence of MTT for 4 hours @ 37° C., 5% CO2. […] Cells were then incubated overnight @ 37°, 5% CO2. OD570 measurements were taken using BioTek Synergy HT multiplatform microplate reader. Growth inhibition curves IC50s and IC80s were determined using GraphPad Prism 5 statistical software.

The test system of the next series is Hep G2. Description: MTT growth inhibition, Hep G2. Format: cell-based, human. Conditions: Hep G2, 8.0×10^3 cells/wells, […] FBS @ 78 Hr. The protocol: (§5) Samples of the test compounds were formulated in 100% DMSO to obtain 20 mM stock solutions; stored @ 4° C. The IC50s and IC80s were determined as described below. Huh7, WRL-68, PLC/PRF/5, Hep 3B, and Hep G2 human cancer lines were routinely cultured and maintained in a basal medium containing 2% FBS @ 37° C., 5% CO2. […] The assay medium was basal medium/1.5% FBS. Cells were cultured overnight in 96-well plates at 37° C., 5% CO2 prior to KX2-391. MSA and Dasatinib addition. […] 10 μL of 20× dilutions were added to the appropriate wells (n=3) containing 190 μL cancer cell line; 6561 nM to 0.012 nM range of final concentrations. Vehicle control contained cells, no sample. Medium control contained cells, no sample, 0.03% DMSO (highest DMSO concentration present in samples). […] On day 3, 10 μL MTT (5 mg/mL) were added to each well. Cells were incubated in the presence of MTT for 4 hours @ 37° C., 5% CO2. […] Cells were then incubated overnight @ 37°, 5% CO2. OD570 measurements were taken using BioTek Synergy HT multiplatform microplate reader. Growth inhibition curves IC50s and IC80s were determined using GraphPad Prism 5 statistical software.

The subject of the next series is PLC/PRF/5. As to the kind of experiment: MTT growth inhibition, PLC/PRF/5. Format: cell-based, human. Conditions: PLC/PRF/5, 8.0×10^3 cells/wells, […] FBS @ 78 Hr. The protocol: as §4
In the next series the test system is HuH7. Description: MTT growth inhibition, HuH7. The class given is cell-based, human. To be noted: HuH7, 8.0×10^3 cells/wells, […] FBS @ 78 Hr. As for the experimental part: as §5
A further series deals with WRL-68. As to the kind of experiment: MTT growth inhibition, WRL-68. Format: cell-based, human. To be noted: WRL-68, 8.0×10^3 cells/wells, […] FBS @ 78 Hr. The protocol: as §4

Where only a bound is given, the exact number is not on record here.

On to `Cl.Cl.O=C(Cc1ccc(-c2ccc(OCCN3CCOCC3)cc2)cn1)NCc1ccccc1` [KXO1:2HCl], for which, in series [1], the “Antiviral Activity Percent inhibition of cell control” value is recorded as 48.2% and the Interpretation entry is given as “Cytotoxic”. The “Cytotoxicity Percent of cell control” value in the series with HepG2-2.2.15 cells is listed as 51.3%.

KX1-004: in series [2], the “average dB threshold shifts” value was “lower”. For the same molecule, in series [3], the “protection against cisplatin-induced hearing loss” value was “protected against ciplatin-induced hearing loss”.

As a reminder, the GI50 is the concentration that inhibits growth by half. In general, melting point refers to the temperature, or range, at which the solid turns liquid. In turn, `O=C(Cc1ccc(-c2ccccc2)cc1)NCc1cccc(F)c1` [KX1-305, N(3-fluoro-benzyl)-4-biphenylacetamide] returned a melting point of 170 to 172 °C. Further, in the series with c-Src 3T3 cells, the activity at 0.1 µM is 35%, the activity at 1 µM is under 0%, the activity at 10 µM is under 0% and the GI50 was determined as 349 nM. For the same molecule, in series [4], it took 410 nM to inhibit growth by half (GI50). This molecule also gave a 50% growth inhibitory concentration (GI50) in [5] of 890 nM. Moreover, the GI50 in [6] (A549 cells) worked out at 1030 nM. In the series on HT29 cell line, the GI50 is 877 nM, the activity at 0.05 µM stood at 108%, the activity at 0.5 µM was under 0% and the activity at 5 µM is under 0%.

Consider `CN1CCN(CCOc2ccc(-c3ccc(CC(=O)NCc4cccc(F)c4)cc3)c(F)c2)CC1` [KX2-402], for which the GI50 with 769-P was found to be 8.4 nM; in the series on 786-O, 57.7 nM; in the series on ACHN it was 6.9 nM; in the series with Caki-2, 5 nM.

For the molecule `O=C(Cc1ccc(-c2ccccc2)cc1)NCc1cccc(O)c1` [KX1-136, N(3-hydroxy-benzyl)-4-biphenylacetamide], the melting point is 169 to 170 °C. For the same molecule, in the series on c-Src 3T3 cells, the activity at 0.1 µM amounted to 46.3%, the activity at 1 µM was under 0%, the activity at 10 µM was under 0% and the GI50 came to 53 nM. The same molecule returned a GI50 in series [4] of 105 nM. The molecule further returned a concentration for 50% growth inhibition (GI50) in [5] of 280 nM. This molecule had a GI50 in [6] (A549 (Lung) cells) of 330 nM. In the series on HT29 cell line, the GI50 amounted to 484 nM, the activity at 0.05 µM is 83.1%, the activity at 0.5 µM is under 0% and the activity at 5 µM is under 0%.

The term IC50 denotes the concentration that inhibits the measured activity by half. One may read the IC80 as the point of the concentration-response curve where the effect stands at 80%. Regarding `O=C(Cc1ccc(-c2ccc(OCCN3CCOCC3)cc2)cn1)NCc1ccccc1` [KX2-391-MSA], the IC50 in the series with Hep 3B amounted to 26 nM; in the series with Hep G2, 60 nM; in the series with PLC/PRF/5, 13 nM; in the series on HuH7 it was 9 nM; in the series on WRL-68, 15 nM. For the same molecule, the IC80 was 88 nM in the series with Hep 3B; 3660 nM in the series on Hep G2; 24 nM in the series with PLC/PRF/5; 23 nM in the series with HuH7; 25 nM in the series on WRL-68.
